Assay results taken from patent US20060234936A1, “Method for screening substances capable of inhibiting the hyperplasia of pancreatic cells and/or the hypersecretion of insulin by pancreatic cells” (Taisho Pharmaceutical Co., Ltd., priority 2005, published 2006).

Columns and labels:
[1] = system: Lamin gene; test: Gene expression inhibition by siRNA, Lamin mRNA by real-time quantitative RT-PCR; format: cell-based, rat; conditions: INS-1 cells, siRNA 100 nM, 24 hours after introduction
Description: (§1) INS-1 cells (rat pancreatic β cell line) were cultured in an incubator at 5% CO2/95% air and 37° C. using an RPMI 1640 medium (GIBCO) containing 10 mM HEPES, 10% FBS, 1 mM sodium pyruvate, and 50 μM β-mercaptoethanol. Subculturing was carried out every 5 days, using PBS containing 0.25% trypsin/0.02% EDTA.
(§2) The cells were seeded on a 12-well plate (Iwaki Glass Co. Ltd.) at a concentration of 0.25×10^5 cells/cm^2 and were cultured for 48 hours. A cocktail of three types of siRNAs to the Reg IIIβ gene, individual siRNAs (three types), siRNA to Lamin (positive control; B-Bridge), and a cocktail of three types of non-specific siRNAs (negative control; B-Bridge) were diluted with Opti-MEM (GIBCO) so as to produce the final concentrations of 100 nM. The respective RNAs were introduced into the cells using Lipofectamine 2000 (Invitrogen Corporation) and the cells were cultured for 24 hours. After washing the cells with PBS twice, total RNAs were prepared using a SV Total Isolation Kit (Promega Corporation) and cDNA pools were then prepared using reverse transcriptase M-MLV (Invitrogen Corporation). Real-time quantitative PCR was conducted under the conditions similarly to the mouse islet case. The expression level of the rat β-actin gene was analyzed as an internal standard in a similar manner. The sequences of the siRNAs and the sequences of specific primers for PCR are shown below.

[2] = system: Reg IIIβ gene; test: Gene expression inhibition by siRNA, Reg IIIβ mRNA by real-time quantitative RT-PCR; format: cell-based, rat; conditions: INS-1 cells, siRNA 100 nM, 24 hours after introduction
Description: as §1, §2

[3] = system: INS-1 cells; test: Analysis of cell growth, [3H] thymidine incorporation in INS-1 cells; format: cell-based, rat
Description: (§3) INS-1 cells (rat pancreatic β cell line) were cultured in an incubator at 5% CO2/95% air and 37° C. using an RMI 1640 medium (GIBCO) containing 10 mM HEPES, 10% FBS, 1 mM sodium pyruvate, 50 μM β-mercaptoethanol, 100 units/ml penicillin, and 100 μg/ml streptomycin. Subculturing was carried out every 7 days, using PBS containing 0.25% trypsin/0.02% EDTA
The cells were seeded on a 48-well plate at a concentration of 1×10^5 cells/well and were cultured for 48 hours. After washing the cells with PBS, the cells were cultured in an RPMI-1640 medium (test medium) for 12 to 15 hours which had been deprived of serum and to which 3 mM glucose and 0.1% BSA had been added. […] The cells were cultured in the media for 20 hours, and after further addition of [^3H] thymidine (Amersham) to the media in order to achieve a radioactivity of 1 μCi/well, the cells were cultured for additional 4 hours. After washing the cells with PBS twice followed by with 10% trichloroacetic acid (TCA) twice, the cells were fixed by TCA treatment for 30 minutes. The cells were solublized with 0.1 N NaOH and the radioactivity of each medium was measured with a liquid scintillation counter.

[4] = system: Reg IIIβ; test: Real-time quantitative RT-PCR of Reg IIIβ mRNA in INS-1 cells treated with PACAP; format: cell-based, rat
Description: as §3
Real-time quantitative PCR was conducted under the conditions similarly to the mouse islet case. The expression level of the β-actin gene was analyzed as an internal standard in a similar manner. In PCR the primers having the following sequences were used.

[5] = system: isolated islet; conditions: cited from earlier work

Lamin siRNA: double-stranded siRNA to Lamin A/C, positive control (B-Bridge), SEQ ID NO:14/15 (chain 1 GGUGGUGACGAUCUGGGCUTT; chain 2 AGCCCAGAUCGUCACCACCTT; chemistry not given here)
suppression of expression of Lamin gene vs negative control [1]: about 65%

(3): double-stranded siRNA to Reg IIIβ, SEQ ID NO:20/21 (chain 1 GGAAACAGCUACCAAUAUATT; chain 2 UAUAUUGGUAGCUGUUUCCTT; chemistry not given here)
suppression of expression of Reg IIIβ gene vs negative control [2]: about 60%

CC[C@H](C)[C@H](NC(=O)CNC(=O)[C@H](CC(=O)O)NC(=O)[C@H](CO)NC(=O)[C@@H](N)Cc1c[nH]cn1)C(=O)N[C@@H](Cc1ccccc1)C(=O)N[C@H](C(=O)N[C@@H](CC(=O)O)C(=O)N[C@@H](CO)C(=O)N[C@@H](Cc1ccc(O)cc1)C(=O)N[C@@H](CO)C(=O)N[C@@H](CCCNC(=N)N)C(=O)N[C@@H](Cc1ccc(O)cc1)C(=O)N[C@@H](CCCNC(=N)N)C(=O)N[C@@H](CCCCN)C(=O)N[C@@H](CCC(N)=O)C(=O)N[C@@H](CCSC)C(=O)N[C@@H](C)C(=O)N[C@H](C(=O)N[C@@H](CCCCN)C(=O)N[C@@H](CCCCN)C(=O)N[C@@H](Cc1ccc(O)cc1)C(=O)N[C@@H](CC(C)C)C(=O)N[C@@H](C)C(=O)N[C@@H](C)C(=O)N[C@H](C(=O)N[C@@H](CC(C)C)C(=O)NCC(=O)N[C@@H](CCCCN)C(=O)N[C@@H](CCCNC(=N)N)C(=O)N[C@@H](Cc1ccc(O)cc1)C(=O)N[C@@H](CCCCN)C(=O)N[C@@H](CCC(N)=O)C(=O)N[C@@H](CCCNC(=N)N)C(=O)N[C@H](C(=O)N[C@@H](CCCCN)C(=O)N[C@@H](CC(N)=O)C(=O)N[C@@H](CCCCN)C(N)=O)C(C)C)C(C)C)C(C)C)[C@@H](C)O [PACAP]
effect on cell growth ([3]; 3 mM glucose): No effects | effect on cell growth ([3]; 11 mM glucose): No effects | cell growth inhibition, dependence on PACAP concentration ([3]; high glucose concentration, varying PACAP concentration): inhibited the cell growth of INS-1 cells in a concentration-dependent manner | change in mRNA expression of Reg IIIβ ([4]; 3 mM glucose): no change in expression | change in mRNA expression of Reg IIIβ ([4]; 11 mM glucose): no change in expression | change in mRNA expression of Reg IIIβ ([4]; high glucose concentration (25 mM), after 4 hours): expression-induction | change in mRNA expression of Reg IIIβ ([4]; high glucose concentration (25 mM), until after 48 hours): continuous increase in the expression | level at which glucose-inducible insulin secretion is promoted [5]: 10^−14 M
